Assay results from US7915297B2, “Isoxazole derivatives and use thereof” (SK Holdings Co., Ltd., priority 2005, dated 2011).

What was measured:
[1] = tested on: Wnt/β-catenin signaling (β-catenin activity) in SW480 cell line; experiment: Cell-based Wnt agonist screening, TCF luciferase reporter, SW480 (TCF-FL); set-up: species or system human; settings: Homo sapiens, % of LiCl (20 mM), 24 h, read-out: Max. Activity (%); for Emax at 120 µM: Con. 120 μM; for Emax at 30 µM: Con. 30 μM; for Emax at 10 µM: Con. 10 μM; for Emax at 1 µM: Con. 1 μM
In short: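 HEK293 and SW480 lines stably carried a 5X TCF firefly luciferase reporter under G418 selection. Cells (8,000–15,000/well, RPMI 1640 with 5% FBS) were grown 24 h, then treated with compound for 24 h. Luciferase activity was expressed as percent of the 20 mM LiCl positive control.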

[2] = tested on: ST-2, a murine bone marrow stromal T cell; experiment: Differentiation of ST2 cell line into osteoblasts, alkaline phosphatase activity; format: cell-based; settings: Mus musculus, 96 h; ST-2 cells, 11 μM compound, 4 days; control treated only with ascorbic acid and β-glycerolphosphate = 100; read-out: ALP Activity (% Control)
Description: The derivatives synthesized according to the present invention were assayed for their ability to differentiate stem cells into osteoblasts. In this regard, ST-2, a murine bone marrow stromal T cell, was used to measure the activity of bone-specific alkaline phosphatase, a marker of early-stage osteoblast differentiation. In detail, the cell line was cultured in an MEM supplemented with penicillin-streptomycin (100 Units/mL) and heat-inactivated 5% fetal bovine serum under standard culture conditions (5% CO2, 37° C., 100% relative humidity). […] The suspension was diluted with the same medium to adjust the cell count to 5,000˜10,000 cells per well, and was moved in a 96-well microtiter, subsequently. After being incubated for 24 hrs, the cells were treated in a medium containing 50 μg/ml of ascorbic acid and 5 mM of β-glycerolphosphate with various concentrations of the isoxazole derivatives synthesized in Preparation Examples. During incubation for one to nine days, the Alkaline phosphatase activity was analyzed using a […] Assay kit (Promega, U.S.A.) according to the protocol described in the manual provided by the manufacturer. The activities were measured in cells which had been incubated at 11 μM of each of the compounds for 4 days. Data on the activities of the isoxazole derivatives synthesized are given in Tables 44 to 47 and are expressed as percentages of ALP relative to that measured in the control, which was treated only with ascorbic acid and β-glycerolphosphate. ALP activities according to the concentrations of Derivative (1) are depicted in FIG. 5.

Row | SMILES | Emax at 120 µM [1] | activity at 11 µM [2] | Emax at 30 µM [1] | Emax at 10 µM [1] | Emax at 1 µM [1]
1 | O=C(NCCc1ccc(O)cc1)c1cc(-c2cccs2)on1 [Derivative (141), 5-thiophen-2-yl-isoxazole-3-carboxylic acid [2-(4-hydroxy-phenyl)-ethyl]-amide] | 519% | 790% | – | – | –
2 | Cn1cccc1-c1cc(C(=O)NCCCn2ccnc2)no1 [Derivative (149), 5-(1-methyl-1H-pyrrol-2-yl)-isoxazole-3-carboxylic acid (3-imidazol-1-yl-propyl)-amide] | – | 275% | 70% | – | –
3 | Cn1cccc1-c1cc(C(=O)NCCCn2cncn2)no1 [Derivative (150)] | – | 328% | 78% | – | –
4 | Cn1cccc1-c1cc(C(=O)NCCn2cncn2)no1 [Derivative (151), 5-(1-methyl-1H-pyrrol-2-yl)-isoxazole-3-carboxylic acid (2-[1,2,4]triazol-1-yl-ethyl)-amide] | – | 151% | 41% | – | –
5 | O=C(NCCn1cncn1)c1cc(-c2ccoc2)on1 [Derivative (154), 5-furan-3-yl-isoxazole-3-carboxylic acid (2-[1,2,4]-triazol-1-yl-ethyl)-amide] | 113% | 310% | – | – | –
6 | O=C(NCCn1ccnc1)c1cc(-c2ccsc2)on1 [Derivative (157), 5-thiophen-3-yl-isoxazole-3-carboxylic acid (2-imidazol-1-yl-ethyl)-amide] | – | 809% | 871% | – | –
7 | O=C(NCCCn1cncn1)c1cc(-c2ccc[nH]2)on1 [Derivative (159), 5-(1H-pyrrol-2-yl)-isoxazole-3-carboxylic acid (3-[1,2,4]triazol-1-yl-propyl)-amide] | – | 130% | 128% | – | –
8 | O=C(NCCCn1ccnc1)c1cc(-c2ccc[nH]2)on1 [Derivative (160), 5-(1H-pyrrol-2-yl)-isoxazole-3-carboxylic acid (3-imidazol-1-yl-propyl)-amide] | 146% | 158% | – | – | –
9 | O=C(NCCCn1ccnc1)c1cc(N2CCOCC2)on1 [Derivative (161), 5-morpholin-4-yl-isoxazole-3-carboxylic acid (3-imidazol-1-yl-propyl)-amide] | 33% | 89% | – | – | –
10 | O=C(NCCCn1cncn1)c1cc(N2CCOCC2)on1 [Derivative (162), 5-morpholin-4-yl-isoxazole-3-carboxylic acid (3-[1,2,4]-triazol-1-yl-propyl)-amide] | – | 60% | – | 30% | –
11 | O=C(NCCn1cncn1)c1cc(N2CCOCC2)on1 [Derivative (163), 5-morpholin-4-yl-isoxazole-3-carboxylic acid (2-[1,2,4]-triazol-1-yl-ethyl)-amide] | 34% | 166% | – | – | –
12 | O=C(NCCCn1ccnc1)c1cc(C2CCCCC2)on1 [Derivative (164), 5-cyclohexyl-3-isoxazole-3-carboxylic acid (3-imidazol-1-yl-propyl)-amide] | 55% | 241% | – | – | –
13 | O=C(NCCCn1cncn1)c1cc(C2CCCCC2)on1 [Derivative (165), 5-cyclohexyl-3-isoxazole-3-carboxylic acid (3-[1,2,4]-triazol-1-yl-propyl)-amide] | – | 92% | 45% | – | –
14 | CC(C)(C)c1cc(C(=O)NCCCn2ccnc2)no1 [Derivative (167), 5-tert-butyl-3-isoxazole-3-carboxylic acid (3-imidazol-1-yl-propyl)-amide] | 37% | 276% | – | – | –
15 | CC(C)(C)c1cc(C(=O)NCCCn2cncn2)no1 [Derivative (168), 5-tert-butyl-3-isoxazole-3-carboxylic acid (3-[1,2,4]-triazol-1-yl-propyl)-amide] | – | 97% | – | 40% | –
16 | O=C(NCCCn1ccnc1)c1cc(-c2cc3ccccc3o2)on1 [Derivative (169), 5-benzofuran-2-yl-isoxazole-3-carboxylic acid (3-imidazol-1-yl-propyl)-amide] | – | 83% | – | – | 43%

Row | SMILES | Emax at 120 µM [1] | activity at 11 µM [2] | Emax at 30 µM [1] | Emax at 10 µM [1] | Emax at 1 µM [1]
17 | O=C(NCCCn1cncn1)c1cc(-c2cc3ccccc3o2)on1 [Derivative (170), 5-benzofuran-2-yl-isoxazole-3-carboxylic acid (3-[1,2,4]triazol-1-yl-propyl)-amide] | – | 74% | 46% | – | –
18 | O=C(NCCn1cncn1)c1cc(-c2cc3ccccc3o2)on1 [Derivative (171), 5-benzofuran-2-yl-isoxazole-3-carboxylic acid (2-[1,2,4]triazol-1-yl-ethyl)-amide] | 43% | 74% | – | – | –
19 | O=C(NCCN1CCOCC1)c1cc(-c2ccco2)on1 [Derivative (175), 5-furan-2-yl-isoxazole-3-carboxylic acid (2-morpholin-4-yl-ethyl)-amide] | – | 767% | – | – | 383%
20 | O=C(NCCN1CCNCC1)c1cc(-c2ccco2)on1 [Derivative (176), 5-furan-2-yl-isoxazole-3-carboxylic acid (2-piperazin-1-yl-ethyl)-amide] | – | 179% | 93% | – | –
21 | CC(=O)N1CCN(CCNC(=O)c2cc(-c3ccco3)on2)CC1 [Derivative (178), 5-furan-2-yl-isoxazole-3-carboxylic acid [2-(4-acetyl-piperazin-1-yl)-ethyl]-amide] | 301% | 475% | – | – | –
22 | O=C(NCCN1CCN(c2ccc(F)cc2)CC1)c1cc(-c2ccco2)on1 [Derivative (179), 5-furan-2-yl-isoxazole-3-carboxylic acid {2-[4-(4-fluorophenyl)-piperazin-1-yl]-ethyl}-amide] | – | 356% | – | 73% | –
23 | O=C(NCCN1CCN(c2ccc([N+](=O)[O-])cc2)CC1)c1cc(-c2ccco2)on1 [Derivative (180), 5-furan-2-yl-isoxazole-3-carboxylic acid {2-[4-(4-nitrophenyl)-piperazin-1-yl]-ethyl}-amide] | 45% | 181% | – | – | –
24 | COc1ccc(N2CCN(CCNC(=O)c3cc(-c4ccco4)on3)CC2)cc1 [Derivative (181), 5-furan-2-yl-isoxazole-3-carboxylic acid {2-[4-(4-methoxyphenyl)-piperazin-1-yl]-ethyl}-amide] | – | 681% | – | – | 73%
25 | O=C(NCCN1CCN(c2ccccn2)CC1)c1cc(-c2ccco2)on1 [Derivative (182), 5-furan-2-yl-isoxazole-3-carboxylic acid [2-(4-pyridin-2-yl-piperazin-1-yl)-ethyl]-amide] | – | 887% | 413% | – | –
26 | Cc1ccc(N2CCN(CCNC(=O)c3cc(-c4ccco4)on3)CC2)cc1 [Derivative (183), 5-furan-2-yl-isoxazole-3-carboxylic acid {2-[4-(4-methylphenyl)-piperazin-1-yl]-ethyl}-amide] | 114% | 127% | – | – | –
27 | O=C(NCCN1CCN(c2ccc(Cl)cc2)CC1)c1cc(-c2ccco2)on1 [Derivative (184), 5-furan-2-yl-isoxazole-3-carboxylic acid {2-[4-(4-chlorophenyl)-piperazin-1-yl]-ethyl}-amide] | – | 126% | 70% | – | –
28 | COc1cccc(N2CCN(CCNC(=O)c3cc(-c4ccco4)on3)CC2)c1 [Derivative (185), 5-furan-2-yl-isoxazole-3-carboxylic acid {2-[4-(3-methoxyphenyl)-piperazin-1-yl]-ethyl}-amide] | – | 714% | 810% | – | –
29 | COc1ccc(N2CCN(CCNC(=O)c3cc(-c4ccco4)on3)CC2)cc1OC [Derivative (186), 5-furan-2-yl-isoxazole-3-carboxylic acid {2-[4-(3,4-dimethoxyphenyl)-piperazin-1-yl]-ethyl}-amide] | – | 272% | 553% | – | –
30 | COc1ccc(N2CCN(CCNC(=O)c3cc(-c4ccco4)on3)CC2)c(OC)c1 [Derivative (187), 5-furan-2-yl-isoxazole-3-carboxylic acid {2-[4-(2,4-dimethoxyphenyl)-piperazin-1-yl]-ethyl}-amide] | 179% | 99% | – | – | –
31 | COc1cc(OC)cc(N2CCN(CCNC(=O)c3cc(-c4ccco4)on3)CC2)c1 [Derivative (188), 5-furan-2-yl-isoxazole-3-carboxylic acid {2-[4-(3,5-dimethoxyphenyl)-piperazin-1-yl]-ethyl}-amide] | – | 151% | – | – | 200%
